Columns and labels:
[1] = target: T1, GST tagged LXRbeta LBD (ligand binding domain) (Homo sapiens, UniProt P55055); assay: LanthaScreen TR-FRET Liver X Receptor Coactivator Assay, LXR beta-LBD; assay type: biochemical; details: relative to reference T0901317; for EC50: Inflection Point (potency), co-activator recruitment, read-out: LXR beta IP; for Emax / LXR beta act @ max dose (%): activity at max dose (efficacy); for Emax: read-out: LXR beta act @ max dose (%)
T1 construct: purchased Invitrogen pv4658.pps
T1 sequence (P55055 222-460 limits assumed): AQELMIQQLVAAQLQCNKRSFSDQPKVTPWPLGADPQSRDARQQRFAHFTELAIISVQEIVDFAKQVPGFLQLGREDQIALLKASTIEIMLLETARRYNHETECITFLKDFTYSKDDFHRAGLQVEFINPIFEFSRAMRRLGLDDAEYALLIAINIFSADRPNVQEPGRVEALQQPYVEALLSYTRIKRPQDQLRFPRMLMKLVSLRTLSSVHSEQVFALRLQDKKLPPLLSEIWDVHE
In short: (§1)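 GST-tagged human LXRα or LXRβ LBD was mixed with test compound, then fluorescein-labelled coactivator peptide and terbium anti-GST antibody added. After room-temperature incubation, TR-FRET was read. Inflection point and Emax expressed relative to reference dual agonist T0901317.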

[2] = target: T2, GST tagged LXRalpha LBD (ligand binding domain) (Homo sapiens, UniProt Q13133); assay: LanthaScreen TR-FRET Liver X Receptor Coactivator Assay, LXR alpha-LBD; assay type: biochemical; details: relative to reference T0901317; for EC50 / LXR alpha IP (nM): Inflection Point (potency), co-activator recruitment; for EC50: read-out: LXR alpha IP; for Emax / LXR alpha act @ max dose (%): activity at max dose (efficacy); for Emax: read-out: LXR alpha act @ max dose (%)
T2 construct: purchased Invitrogen pv4655
T2 sequence (Q13133 209-447 limits assumed): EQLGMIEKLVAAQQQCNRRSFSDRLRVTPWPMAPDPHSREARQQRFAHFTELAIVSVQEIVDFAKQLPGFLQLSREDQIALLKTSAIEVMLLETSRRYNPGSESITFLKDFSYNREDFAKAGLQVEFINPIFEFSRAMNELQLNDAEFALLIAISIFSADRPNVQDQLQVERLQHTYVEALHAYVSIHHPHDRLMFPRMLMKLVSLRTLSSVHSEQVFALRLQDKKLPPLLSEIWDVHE
In short: as §1

`COc1ccccc1C1(C(=O)N2CCC(C3CCN(c4ccc(C(=O)N(C)C)c(Cl)c4)CC3)CC2)CCC1` [Example A-87, 2-chloro-4-(1′-{[1-(2-methoxyphenyl)cyclobutyl]carbonyl}-4,4′-bipiperidin-1-yl)-N,N-dimethylbenzamide] was tested, and the EC50 [1] was 11 nM, the Emax [1] was 110% and the EC50 [2] was 499 nM. It also gave an Emax [2] of 58%.

In the case of `COC(=O)[C@@H]1CCCN1C(=O)c1ccc(N2CCC(C3CCN(C(=O)[C@](O)(c4ccccc4)C(F)(F)F)CC3)CC2)cc1Cl` [Example E-22, methyl 1-[(2-chloro-4-{1′-[(2R)-3,3,3-trifluoro-2-hydroxy-2-phenylpropanoyl]-4,4′-bipiperidin-1-yl}phenyl)carbonyl]prolinate], the EC50 [1] is reported as 437 nM, the Emax [1] is reported as 81% and the EC50 [2] is reported as 1670 nM. For the same molecule, the Emax [2] was 18%.

For `COc1cccc(C(O)(C(=O)N2CCC(C3CCN(c4ccc(C(=O)N(C)C)c(Cl)c4)CC3)CC2)C(F)(F)C(F)(F)F)c1` (stereo not drawn) [Example A-81, 2-chloro-N,N-dimethyl-4-{1′-[3,3,4,4,4-pentafluoro-2-hydroxy-2-(3-methoxyphenyl)butanoyl]-4,4′-bipiperidin-1-yl}benzamide], the EC50 [1] was 283 nM, the Emax [1] was 104% and the EC50 [2] was 3670 nM. It also gave an Emax [2] of 25%.

`CN(C)C(=O)c1ccc(N2CCC(C3CCN(C(=O)OC(C)(C)C)CC3)CC2)nc1Cl` [Example B-1, tert-butyl 1′-[6-chloro-5-(dimethylcarbamoyl)pyridin-2-yl]-4,4′-bipiperidine-1-carboxylate] was tested, and the EC50 [1] was 20 nM, the Emax [1] was 119% and the EC50 [2] was 1550 nM. For the same molecule, the Emax [2] was 74%.

In the case of `CC(C)(C)OC(=O)NCC1CN(C(=O)c2ccc(N3CCC(C4CCN(C(=O)[C@](O)(c5ccccc5)C(F)(F)F)CC4)CC3)cc2Cl)C1` [Example E-39, tert-butyl ({1-[(2-chloro-4-{1′-[(2R)-3,3,3-trifluoro-2-hydroxy-2-phenylpropanoyl]-4,4′-bipiperidin-1-yl}phenyl)carbonyl]azetidin-3-yl}methyl)carbamate], the EC50 [1] is reported as 141 nM, the Emax [1] is reported as 99% and the EC50 [2] is reported as 1430 nM. For the same molecule, the Emax [2] was 43%.

With `COc1ccc(C2(C(=O)N3CCC(C4CCN(c5ccc(C(=O)N(C)C)c(Cl)c5)CC4)CC3)CC2)cc1` [Example A-48, 2-chloro-4-(1′-{[1-(4-methoxyphenyl)cyclopropyl]carbonyl}-4,4′-bipiperidin-1-yl)-N,N-dimethylbenzamide] the EC50 [1] was 289 nM, the Emax [1] was 69% and the “LXR alpha IP (nM)” value [2] was “NO IP”. The Emax [2] was 0%.

With `Cc1ccc(C(C)(C)C(=O)N2CCC(C3CCN(c4ccc(C(=O)N(C)C)c(Cl)c4)CC3)CC2)cc1` [Example A-92, 2-chloro-N,N-dimethyl-4-{1′-[2-methyl-2-(4-methylphenyl)propanoyl]-4,4′-bipiperidin-1-yl}benzamide] the EC50 [1] was 193 nM, the Emax [1] was 99% and the EC50 [2] was 2840 nM. The Emax [2] was 31%.

`Cc1nnc(CN(C)C(=O)c2ccc(N3CCC(C4CCN(C(=O)[C@](O)(c5ccccc5)C(F)(F)F)CC4)CC3)cc2Cl)o1` [Example E-47, 2-chloro-N-methyl-N-[(5-methyl-1,3,4-oxadiazol-2-yl)methyl]-4-{1′-[(2R)-3,3,3-trifluoro-2-hydroxy-2-phenylpropanoyl]-4,4′-bipiperidin-1-yl}benzamide] was tested, and the EC50 [1] was 334 nM, the Emax [1] was 71% and the “LXR alpha IP (nM)” value [2] was “NO IP”. It also gave an Emax [2] of 10%.

`CN(C)C(=O)c1ccc(N2CCC(C3CCN(S(=O)(=O)c4c(Cl)cccc4C(F)(F)F)CC3)CC2)cc1Cl` [Example A-105, 2-chloro-4-(1′-{[2-chloro-6-(trifluoromethyl)phenyl]sulfonyl}-4,4′-bipiperidin-1-yl)-N,N-dimethylbenzamide] showed an EC50 [1] of 55 nM, an Emax [1] of 118% and an EC50 [2] of 1090 nM. For the same molecule, the Emax [2] was 44%.

Work on `COC1CN(C(=O)c2ccc(N3CCC(C4CCN(C(=O)[C@](O)(c5ccccc5)C(F)(F)F)CC4)CC3)cc2Cl)C1` [Example E-35, (2R)-3-(1′-{3-chloro-4-[(3-methoxyazetidin-1-yl)carbonyl]phenyl}-4,4′-bipiperidin-1-yl)-1,1,1-trifluoro-3-oxo-2-phenylpropan-2-ol] yielded an EC50 [1] of 364 nM, an Emax [1] of 57% and an EC50 [2] of 2460 nM. The Emax [2] was 19%.

In the case of `O=C(c1c(F)cccc1F)N1CCC(C2CCN(c3ccc(C(=O)N4CCCC4CO)c(Cl)c3)CC2)CC1` (stereo not drawn) [Example E-12, {1-[(2-chloro-4-{1′-[(2,6-difluorophenyl)carbonyl]-4,4′-bipiperidin-1-yl}phenyl)carbonyl]pyrrolidin-2-yl}methanol], the EC50 [1] is reported as 128 nM, the Emax [1] is reported as 84% and the EC50 [2] is reported as 1220 nM. It also gave an Emax [2] of 58%.

`CC(C)CC(O)(C(=O)N1CCC(C2CCN(c3ccc(C(=O)N(C)C)c(Cl)c3)CC2)CC1)C(F)(F)F` (stereo not drawn) [Example A-90, 2-chloro-4-{1′-[2-hydroxy-4-methyl-2-(trifluoromethyl)pentanoyl]-4,4′-bipiperidin-1-yl}-N,N-dimethylbenzamide] was tested, and the EC50 [1] was 108 nM, the “LXR beta act @ max dose (%)” value [1] was 70% and the EC50 [2] was 686 nM. The “LXR alpha act @ max dose (%)” value [2] was 45%.

In the case of `CC(C)CC(O)(C(=O)N1CCC(C2CCN(c3ccc(C(=O)N(C)C)c(Cl)n3)CC2)CC1)C(F)(F)F` (stereo not drawn) [Example B-7, 2-chloro-6-{1′-[2-hydroxy-4-methyl-2-(trifluoromethyl)pentanoyl]-4,4′-bipiperidin-1-yl}-N,N-dimethylpyridine-3-carboxamide], the EC50 [1] is reported as 72 nM, the Emax [1] is reported as 127% and the EC50 [2] is reported as 1430 nM. For the same molecule, the Emax [2] was 55%.

`CN(C)C(=O)c1ccc(N2CCC(C3CCN(C(=O)C(C)(C)c4ccc(Cl)cc4)CC3)CC2)cc1Cl` [Example A-44, 2-chloro-4-{1′-[2-(4-chlorophenyl)-2-methylpropanoyl]-4,4′-bipiperidin-1-yl}-N,N-dimethylbenzamide] was tested, and the EC50 [1] was 143 nM, the Emax [1] was 95% and the EC50 [2] was 1980 nM. The Emax [2] was 22%.

Work on `CC(C)C(O)(C(=O)N1CCC(C2CCN(c3ccc(C(=O)N(C)C)c(Cl)n3)CC2)CC1)C(F)(F)F` (stereo in doubt) [Example B-6, 2-chloro-6-{1′-[(2S)-2-hydroxy-3-methyl-2-(trifluoromethyl)butanoyl]-4,4′-bipiperidin-1-yl}-N,N-dimethylpyridine-3-carboxamide] yielded an EC50 [1] of 38 nM, an Emax [1] of 108% and an EC50 [2] of 1670 nM. It also gave an Emax [2] of 46%.

Molecule `CN(C)C(=O)c1ccc(N2CCC(C3CCN(C(=O)C(O)(C(C)(C)C)C(F)(F)F)CC3)CC2)cc1Cl` (racemic) [Example A-4, 2-Chloro-4-(1′-(2-hydroxy-3,3-dimethyl-2-(trifluoromethyl)butanoyl)-[4,4′-bipiperidin]-1-yl)-N,N-dimethylbenzamide] has an EC50 [1] of 29 nM, an Emax [1] of 104% and an EC50 [2] of 735 nM. It also gave an Emax [2] of 65%.

`CN(C)C(=O)c1ccc(N2CCC(C3CCN(C(=O)c4ccccc4Cl)CC3)CC2)cc1Cl` [Example A-22, 2-chloro-4-{1′-[(2-chlorophenyl)carbonyl]-4,4′-bipiperidin-1-yl}-N,N-dimethylbenzamide] gave an EC50 [1] of 52 nM, an Emax [1] of 58% and an EC50 [2] of 1 nM. The Emax [2] was 3%.

`CC(C)CC(O)(C(=O)N1CCC(C2CCN(c3ccc(C(=O)N(C)C)c(Cl)c3)CC2)CC1)C(F)(F)F` (stereo not drawn) [Example A-89, 2-chloro-4-{1′-[2-hydroxy-4-methyl-2-(trifluoromethyl)pentanoyl]-4,4′-bipiperidin-1-yl}-N,N-dimethylbenzamide] was tested, and the EC50 [1] was 102 nM, the “LXR beta act @ max dose (%)” value [1] was 94% and the EC50 [2] was 1220 nM. The “LXR alpha act @ max dose (%)” value [2] was 36%.

Reference: patent US20180305332A1, “Bispiperidinyl Derivatives as Liver X Receptor Beta Agonists, Compositions, and Their Use” (Merck Sharp & Dohme Corp., priority 2015, published 2018)
